Source: ChEMBL document CHEMBL4483862, “Open-source discovery of chemical leads for next-generation chemoprotective antimalarials” (2018)

Test system: Plasmodium berghei
Test: Luciferase/luciferin-expressing antifolate-resistant parasites were used to infect a culture of HepG2 cells that were pre-incubated with compounds. Infected hepatocytes emit light due to the luciferase reaction. Assay results are presented as the percent inhibition of light emission compared to control. […]
Format: functional
Conditions: sporozoite; for IC90: read-out: LUCIFERASE INFECTION ASSAY - IC90

SMILES	IC90 [µM]	other results
CC(NC(=O)COc1ccc(-c2nnco2)cc1)c1ccc(Cl)cc1Cl (configuration not stated)	> 10	IC50 (FFLUC_HILL_SLOPE 0.318, FFLUC_R_SQUARED 0.016, read-out: LUCIFERASE INFECTION ASSAY - IC50): > 10 µM
CC(=O)Nc1cccc(-c2ccnc3c2CC(C(=O)NCc2ccco2)O3)c1 (configuration not stated)	6.23	IC50 (FFLUC_HILL_SLOPE 0.324, FFLUC_R_SQUARED 0.726, HEPG2TOX_HILL_SLOPE 3.12, HEPG2TOX_R_SQUARED 0.86, PBLUC_HILL_SLOPE 2.84, PBLUC_R_SQUARED 0.407, read-out: LUCIFERASE INFECTION ASSAY - IC50): 2.87 µM
CC1(C(=O)NCc2ccco2)Cc2c(-c3ccc4c(c3)OCO4)ccnc2O1 (configuration not stated)	> 8.72	IC50 (FFLUC_HILL_SLOPE 0.436, FFLUC_R_SQUARED 0.176, HEPG2TOX_HILL_SLOPE 1.94, HEPG2TOX_R_SQUARED 0.783, PBLUC_HILL_SLOPE 1.2, PBLUC_R_SQUARED 0.613, read-out: LUCIFERASE INFECTION ASSAY - IC50): 2.28 µM
NS(=O)(=O)c1ccc(Nc2nc(-c3ccc(Cl)s3)cs2)cc1	> 10	IC50 (FFLUC_HILL_SLOPE 0.347, FFLUC_R_SQUARED 0.604, read-out: LUCIFERASE INFECTION ASSAY - IC50): > 10 µM
N#C/C(=C\N1CCN(Cc2ccccc2)CC1)S(=O)(=O)c1ccccn1	> 8.96	IC50 (FFLUC_HILL_SLOPE 0.433, FFLUC_R_SQUARED 0.0165, read-out: LUCIFERASE INFECTION ASSAY - IC50): > 8.96 µM
CCOC(=O)c1c(S(=O)(=O)N2CCN(c3ncccc3C(F)(F)F)CC2)c(-c2ccccc2)n(-c2ccccc2)c1C	> 5.51	IC50 (FFLUC_HILL_SLOPE 0.343, FFLUC_R_SQUARED 0.352, PBLUC_HILL_SLOPE 1.97, PBLUC_R_SQUARED 0.72, read-out: LUCIFERASE INFECTION ASSAY - IC50): > 5.51 µM
CC(=O)Nc1ccc2c(COC(=O)C(CC(C)C)NC(=O)c3ccc(Cl)cc3)cc(=O)oc2c1 (configuration not stated)	> 10	IC50 (FFLUC_HILL_SLOPE 0.303, FFLUC_R_SQUARED 0.675, read-out: LUCIFERASE INFECTION ASSAY - IC50): > 10 µM
CNC(=S)N/N=C1\C(=O)Nc2ccc(C(C)C)cc21	> 10	IC50 (FFLUC_HILL_SLOPE 0.391, FFLUC_R_SQUARED 0.18, PBLUC_HILL_SLOPE 8.53, PBLUC_R_SQUARED 0.15, read-out: LUCIFERASE INFECTION ASSAY - IC50): 8.69 µM
Cc1ccc(S(=O)(=O)/N=C2\C=C3N(CCO)CCOC3(O)c3ccccc32)c(C)c1 (configuration not stated)	6.56	IC50 (FFLUC_HILL_SLOPE 0.405, FFLUC_R_SQUARED 0.0273, HEPG2TOX_HILL_SLOPE 10.4, HEPG2TOX_R_SQUARED 0.538, PBLUC_HILL_SLOPE 3.34, PBLUC_R_SQUARED 0.51, read-out: LUCIFERASE INFECTION ASSAY - IC50): 3.4 µM
CC1(C)CCc2cc(/C=N/NC(=O)c3ccc(Cl)cc3)ccc2O1	> 9.63	IC50 (FFLUC_HILL_SLOPE 0.306, FFLUC_R_SQUARED 0.456, PBLUC_HILL_SLOPE 2.8, PBLUC_R_SQUARED 0.043, read-out: LUCIFERASE INFECTION ASSAY - IC50): 6.8 µM
Cc1ccc(-c2nn(-c3ccccc3)c3[nH]c(-c4ccccc4)cc(=O)c23)cc1	> 10	IC50 (FFLUC_HILL_SLOPE 0.301, FFLUC_R_SQUARED 0.0383, PBLUC_HILL_SLOPE 15, PBLUC_R_SQUARED 0.1, read-out: LUCIFERASE INFECTION ASSAY - IC50): 9.8 µM
CN(Cc1ccc(Cl)cc1Cl)C(=O)c1ccc(NC(=O)C2CC2)cc1	> 10	IC50 (FFLUC_HILL_SLOPE 0.429, FFLUC_R_SQUARED 0.32, PBLUC_HILL_SLOPE 3.47, PBLUC_R_SQUARED 0.753, read-out: LUCIFERASE INFECTION ASSAY - IC50): 6.88 µM
O=c1c2c3c(sc2nc(SCc2cc([N+](=O)[O-])cc4c2OCOC4)n1C1CCCC1)CCCC3	> 10	IC50 (FFLUC_HILL_SLOPE 0.343, FFLUC_R_SQUARED 0.0189, read-out: LUCIFERASE INFECTION ASSAY - IC50): > 10 µM
Cc1cc(C(=O)OCC(=O)NC(=O)NC(C)(C)C)c(C)n1-c1ccccc1	> 10	IC50 (FFLUC_HILL_SLOPE 0.365, FFLUC_R_SQUARED 0.0382, read-out: LUCIFERASE INFECTION ASSAY - IC50): > 10 µM
CCOC(=O)c1c(-c2ccc(OC)cc2)csc1NC(=O)CSc1nc(C)nc2sc3c(c12)CCC3	> 10	IC50 (FFLUC_HILL_SLOPE 0.459, FFLUC_R_SQUARED 0.138, read-out: LUCIFERASE INFECTION ASSAY - IC50): > 10 µM
CNc1nc(-c2[nH]c(C)c(C(=O)OC)c2C)cs1	2.11	IC50 (FFLUC_HILL_SLOPE 0.348, FFLUC_R_SQUARED 0.146, HEPG2TOX_HILL_SLOPE 0.722, HEPG2TOX_R_SQUARED 0.883, PBLUC_HILL_SLOPE 1.52, PBLUC_R_SQUARED 0.828, read-out: LUCIFERASE INFECTION ASSAY - IC50): 0.496 µM

SMILES	IC90 [µM]	other results
O=C(Nc1ccc(CN2CCCC2)cc1)c1[nH]nc2ccccc12	5.09	IC50 (FFLUC_HILL_SLOPE 0.453, FFLUC_R_SQUARED 0.794, PBLUC_HILL_SLOPE 1.12, PBLUC_R_SQUARED 0.946, read-out: LUCIFERASE INFECTION ASSAY - IC50): 0.718 µM
N#Cc1ccc(-c2cnc3cnc(-c4cnn(Cc5ccccc5)c4)cn23)cc1	> 8.77	IC50 (FFLUC_HILL_SLOPE 0.364, FFLUC_R_SQUARED 0.0429, PBLUC_HILL_SLOPE 3.85, PBLUC_R_SQUARED 0.0396, read-out: LUCIFERASE INFECTION ASSAY - IC50): 7.64 µM
O=C(NC1CC1)c1ccc(-c2cn3c(-c4ccc(CO)cc4)cnc3cn2)cc1	> 8.58	IC50 (FFLUC_HILL_SLOPE 0.381, FFLUC_R_SQUARED 0.0382, PBLUC_HILL_SLOPE 16.7, PBLUC_R_SQUARED 0.0287, read-out: LUCIFERASE INFECTION ASSAY - IC50): 8.32 µM
COc1ccc(-c2cnc3cnc(-c4cccc(N)c4)cn23)cc1	1.68	IC50 (FFLUC_HILL_SLOPE 0.419, FFLUC_R_SQUARED 0.0515, PBLUC_HILL_SLOPE 8.9, PBLUC_R_SQUARED 0.87, read-out: LUCIFERASE INFECTION ASSAY - IC50): 1.31 µM
CCNC(=S)NNC(=O)/C=C/c1ccccc1OC	> 10	IC50 (FFLUC_HILL_SLOPE 0.401, FFLUC_R_SQUARED 0.162, HEPG2TOX_HILL_SLOPE 12.3, HEPG2TOX_R_SQUARED 0.97, read-out: LUCIFERASE INFECTION ASSAY - IC50): > 10 µM
Cc1ccc(C(CN2CCOCC2)Nc2nc(C(F)(F)F)nc3ccccc23)cc1 (configuration not stated)	3.63	IC50 (FFLUC_HILL_SLOPE 0.43, FFLUC_R_SQUARED 0.0433, PBLUC_HILL_SLOPE 12.3, PBLUC_R_SQUARED 0.751, read-out: LUCIFERASE INFECTION ASSAY - IC50): 3.04 µM
Cc1ccc(Nc2cc(C)nc3c(-c4ccccc4)cnn23)cc1	> 10.5	IC50 (FFLUC_HILL_SLOPE 0.324, FFLUC_R_SQUARED 0.749, HEPG2TOX_HILL_SLOPE 3.12, HEPG2TOX_R_SQUARED 0.973, read-out: LUCIFERASE INFECTION ASSAY - IC50): > 10.5 µM
Cc1ccc(C)c(Oc2ccc(NC(=O)Nc3ccc(SC(F)(F)F)cc3)cn2)c1	2.68	IC50 (FFLUC_HILL_SLOPE 0.447, FFLUC_R_SQUARED 0.395, HEPG2TOX_HILL_SLOPE 4.72, HEPG2TOX_R_SQUARED 0.964, PBLUC_HILL_SLOPE 32.1, PBLUC_R_SQUARED 0.384, read-out: LUCIFERASE INFECTION ASSAY - IC50): 2.5 µM
CC(C)(C)c1ccc(C(=O)NNC(=S)Nc2ccccc2)cc1	> 10.1	IC50 (FFLUC_HILL_SLOPE 0.417, FFLUC_R_SQUARED 0.371, PBLUC_HILL_SLOPE 1.47, PBLUC_R_SQUARED 0.465, read-out: LUCIFERASE INFECTION ASSAY - IC50): 3.05 µM
COC(=O)c1cc(C#N)c(Sc2ncc([N+](=O)[O-])s2)nc1C(OC)OC	> 8.32	IC50 (FFLUC_HILL_SLOPE 0.469, FFLUC_R_SQUARED 0.297, HEPG2TOX_HILL_SLOPE 12.3, HEPG2TOX_R_SQUARED 0.829, PBLUC_HILL_SLOPE 2.84, PBLUC_R_SQUARED 0.141, read-out: LUCIFERASE INFECTION ASSAY - IC50): > 8.32 µM
N#CC(Cc1ccccc1)Sc1nnc(-c2ccccc2)n1-c1ccccc1 (configuration not stated)	> 10	IC50 (FFLUC_HILL_SLOPE 0.339, FFLUC_R_SQUARED 0.0197, read-out: LUCIFERASE INFECTION ASSAY - IC50): > 10 µM
CN(C)c1ccccc1-c1cn2c(-c3ccc4c(ccn4C)c3)cnc2cn1	1.24	IC50 (FFLUC_HILL_SLOPE 0.352, FFLUC_R_SQUARED 0.0452, HEPG2TOX_HILL_SLOPE 0.416, HEPG2TOX_R_SQUARED 0.805, PBLUC_HILL_SLOPE 0.654, PBLUC_R_SQUARED 0.684, read-out: LUCIFERASE INFECTION ASSAY - IC50): 0.043 µM
Cc1c(C)n(CCCO)c2ncn3nc(-c4ccc(N(C)C)cc4)nc3c12	3.79	IC50 (FFLUC_HILL_SLOPE 0.464, FFLUC_R_SQUARED 0.882, PBLUC_HILL_SLOPE 0.457, PBLUC_R_SQUARED 0.781, read-out: LUCIFERASE INFECTION ASSAY - IC50): 0.0311 µM
Cc1cc(C)c(C#N)c(SCc2nc(-c3ccsc3)no2)n1	0.328	IC50 (FFLUC_HILL_SLOPE 0.467, FFLUC_R_SQUARED 0.935, PBLUC_HILL_SLOPE 1.22, PBLUC_R_SQUARED 0.907, read-out: LUCIFERASE INFECTION ASSAY - IC50): 0.0542 µM
Cc1cc(NC(c2cccc(Br)c2)c2ccc3cccnc3c2O)no1 (configuration not stated)	5.63	IC50 (FFLUC_HILL_SLOPE 0.447, FFLUC_R_SQUARED 0.211, HEPG2TOX_HILL_SLOPE 1.34, HEPG2TOX_R_SQUARED 0.983, PBLUC_HILL_SLOPE 2.79, PBLUC_R_SQUARED 0.445, read-out: LUCIFERASE INFECTION ASSAY - IC50): 2.56 µM
